# Data from patent US6121284A, “2,3-bridged 1,4-dihydropyridines, and their use as medicaments” (Bayer Aktiengesellschaft, priority 1994, dated 2000).
# System: C6-BU1-glioma cells
# Assay: 86Rubidium efflux from C6-BU1-glioma cells
# Assay type: cell-based
# Details: Rattus norvegicus, C6-BU-1; 1 μM test substance applied; increase in 86Rb efflux above basal efflux caused by ionomycin set at 100%; read-out: residual efflux
# Procedure: ^86 Rubidium Efflux from C6-BU1-glioma cells
# The experiments were carried out in accordance with the method described by Tas et al. (Neurosci. Lett. 94, 279-284, (1988)), with slight changes. The increase in efflux above the basal efflux caused by ionomycin is calculated from the data and set at 100%. The stimulations in the presence of test substances are then based on this value.
row,Structure (SMILES),activity at 1 µM [%]
1,"CC1=C(C(=O)OC(C)C)C(c2cccc(Cl)c2Cl)C2=C(CCCC2=O)N1C (stereo not drawn) [Example 1, Isopropyl 4-(2,3-dichlorophenyl)-1,2-dimethyl-5-oxo-1,4,5,7,8-hexahydroquinoline-3-carboxylate]",38
2,"COC(=O)C1=C(C)N(C)C2=C(C(=O)OC2)C1c1ccc(Cl)cc1 (stereo not drawn) [Example 8, Methyl1,4,5,7-tetrahydro-4-(4-chlorophenyl)-1,2-dimethyl-7-oxo-furo-[3,4b]-pyridine-3-carboxylate]",53
3,"COC(=O)C1=C(C)N(C)C2=C(C(=O)OC2)C1c1cccc(F)c1F (stereo not drawn) [Example 11, Methyl 1,4,5,7-tetrahydro-4-(2,3-difluorophenyl)-1,2-dimethyl-5-oxo-furo-[3,4b]-pyridine-3-carboxylate]",73
